According to patent publication US5885782A, “Synthetic antibiotics” (priority 1997, dated 1999):

Experiments:
[1] = test system: Fusarum oxysporum f. sp. lycopersici race 1, strain RMI; experiment: Checkerboard combination of peptide with antifungal agent (Limpel method), Fusarium; format: cell-based, Fusarium oxysporum; parameters: key to Expected Inhibition (Limpel formula): expected % inhibition, Ec = X + Y - XY/100 (Limpel)
Description: (§1) Antimicrobial peptides were mixed with known antifungal compounds according to the checkerboard method of Eliopoulos and Moellering, 1991 and the effect of these mixtures was determined.
(§2) The checkerboard method requires serial dilutions of two antimicrobial compounds in concentration ranges spanning the minimal inhibitory concentrations (MICs) of the compounds. Synergism, antagonism, or additivity of the drug combinations was by measured by determining the antimicrobial effect of the various dilutions of the two drugs. Synergism existed when the antimicrobial effect of a mixture was greater than the sum of the independent antimicrobial effects of its combined components. Additivity was indicated when the antimicrobial effect of a drug combination was simply the sum of the independent antimicrobial effects. Antagonism existed when the antimicrobial effect of a mixture of drugs was less than the sum of the independent antimicrobial effects of the separate drugs.
Frozen glycerol stocks of F. oxysporum f. sp. lycopersici microconidia were used for the bioassays. Microconidia or spores were thawed on ice, washed 2× in PDB, and diluted in 2× PDB to obtain the appropriate inoculum concentration for the assay. The 2× PDB was employed for the dilutions to obtain a final concentration of I× PDB in each test well. Microtiter plates were incubated without shaking, in the dark, at 250 C. Absorbance readings were recorded at 24 hr intervals for 72 h. To follow growth in the microtiter plates, an EMAX PRECISION MICROPLATE READER (Molecular Devices Corp., Menlo Park, Calif.) attached to a HEWLETT-PACKARD THINK-JET (Hewlett-Packard Company, Vancouver, Wash.) printer was used to obtain the absorbance (at 595 run) readings. All test combinations were performed in triplicate. Sterile, disposable, flat bottom, polystyrene, 96~well (with lid) microtiter plates (Corning Glass Works, Scientific Products Division, Corning, N.Y.) were used to conduct the assays. The initial concentration of peptide FRLKFH-NH2 (Seq. ID No.34), peptide FRLKFHI-NH2 (Seq. ID No.40), nystatin (5.13 units/ug), and miconazole used in the assay series were 26, 60, 88, and 60 ug/ml, respectively. The checkerboard was setup as described by Eliopoulos and Moellering, 1991. Once the checkerboard mixtures were prepared 50 ul of inoculum […] was added to each of the wells. F. oxysporum f. sp. lycopersici microconidia were produced using FLC medium. Esposito, R. and Fletcher, A. M. 1961. A 4 mm square of an actively growing culture was taken from PDA to 50 ml of FLC broth in a sterile 250 ml screwcap flask. The culture was incubated with shaking […] at 250 C. After 96 h, the slurry of mycelia and microconidia was filtered twice through 3 layers of sterile cheesecloth to obtain the microconidial suspension. The microconidial suspension was adjusted to a concentration of 1-5×10^7 microconidial/ml using a Brightlme hemacytometer (Hausser Scientific, Horsham, Pa.) and stored frozen in I ml aliquots in 20% sterile glycerol at -80C.
(§3) Synergism between known antifungal compounds and antifungal peptides was also studied using the method of Limpel as described by Richer. Richer, D. L. 1987. The methodology of Limpel is described by the equation: […]
(§4) Where Ec is the expected additive effect of two antifungal agents, X is the observed percentage inhibition of the test organism when antifungal agent A is applied alone at the rate used in the mixture, and Y is the observed percentage inhibition of the test organism when antifungal agent B is used alone at the rate used in the mixture. […] Richer, D. L. 1987.
(§5) Experimental studies were set up using the checkerboard method as described by Eliopoulos and Moellering, 1991. The observed inhibitory effects of the antifungal agent and peptide combinations were measured as described above and compared with Ec as calculated from the Limpel formula.

Aspergillus fumigatus = experiment: Checkerboard combination of peptide with antifungal agent (Limpel method), Aspergillus fumigatus; format: cell-based
Description: as §1, §2, §3, §4, §5

Aspergillus paraciticus = experiment: Checkerboard combination of peptide with antifungal agent (Limpel method), Aspergillus paraciticus; format: cell-based
Description: as §1, §2, §3, §4, §5

[2] = Nystatin 0.3 ug/ml, Peptide 0 ug/ml
[3] = Nystatin 0.6 ug/ml, Peptide 0 ug/ml
[4] = Nystatin 1.3 ug/ml, Peptide 0 ug/ml
[5] = Nystatin 2.5 ug/ml, Peptide 0 ug/ml
[6] = Nystatin 5 ug/ml, Peptide 0 ug/ml
[7] = Nystatin 10 ug/ml, Peptide 0 ug/ml
[8] = Nystatin 20 ug/ml, Peptide 0 ug/ml
[9] = Nystatin 0 ug/ml, Peptide 0.6 ug/ml
[10] = Nystatin 0 ug/ml, Peptide 1.3 ug/ml
[11] = Nystatin 0 ug/ml, Peptide 2.5 ug/ml
[12] = Nystatin 0 ug/ml, Peptide 5 ug/ml

C[C@@H]1[C@H](O)[C@@H](C)/C=C/C=C/CC/C=C/C=C/C=C/C=C/C(O[C@H]2O[C@H](C)[C@@H](O)[C@H](N)[C@@H]2O)CC2O[C@](O)(CC(O)C(O)CCC(O)CC(O)CC(O)CC(=O)O[C@H]1C)CC(O)C2C(=O)O (stereo partly drawn) [Nystatin, nystatin]
Expected Inhibition (Limpel formula) [1, 2]: 6.0 | Observed Inhibition (percentage inhibition) [1, 2]: 6.0 | Expected Inhibition (Limpel formula) [1, 3]: 3.0 | Observed Inhibition (percentage inhibition) [1, 3]: 3.0 | Expected Inhibition (Limpel formula) [1, 4]: 4.0 | Observed Inhibition (percentage inhibition) [1, 4]: 4.0 | Expected Inhibition (Limpel formula) [1, 5]: 1.0 | Observed Inhibition (percentage inhibition) [1, 5]: 1.0 | Expected Inhibition (Limpel formula) [1, 6]: 16.0 | Observed Inhibition (percentage inhibition) [1, 6]: 16.0 | Expected Inhibition (Limpel formula) [1, 7]: 100.0 | Observed Inhibition (percentage inhibition) [1, 7]: 100.0 | Expected Inhibition (Limpel formula) [1, 8]: 100.0 | Observed Inhibition (percentage inhibition) [1, 8]: 100.0

FRLKFH: D-amino acid hexapeptide FRLKFH-NH2
interaction with nystatin (observed vs expected inhibition) (Aspergillus fumigatus; peptide 4.4-7.5 ug/ml, nystatin 0.6-2.5 ug/ml, Table XXII): synergism | interaction with miconazole (observed vs expected inhibition) (Aspergillus fumigatus; peptide 17.5-70 ug/ml, miconazole 0.3-2.0 ug/ml, Table XX): synergism | interaction with amphotericin B (observed vs expected inhibition) ([1]; peptide 5.0-10.0 ug/ml, amphotericin B 0.3-2.0 ug/ml, Fusarium oxysporum, Table XVI): synergism

FRLKFHF [D-amino acid heptapeptide FRLKFHF-NH2]
interaction with fluconazole (observed vs expected inhibition) (Aspergillus fumigatus; peptide 1.3-20.0 ug/ml, fluconazole 29-230 ug/ml, Table XVIII): synergism | interaction with amphotericin B (observed vs expected inhibition) (Aspergillus paraciticus; peptide 2.5-10 ug/ml, amphotericin B 0.2-0.6 ug/ml, Table XXIV): synergism | interaction with nystatin (observed vs expected inhibition) (Aspergillus paraciticus; peptide 2.5-10 ug/ml, nystatin 0.3-5.0 ug/ml, Table XXVI): synergism | interaction with fluconazole (observed vs expected inhibition) (Aspergillus paraciticus; peptide 2.5-20 ug/ml, fluconazole 7.5-120 ug/ml, Table XXV): synergism | Expected Inhibition (Limpel formula) [1, 9]: 2.0 | Observed Inhibition (percentage inhibition) [1, 9]: 2.0 | Expected Inhibition (Limpel formula) [1, 10]: 0.0 | Observed Inhibition (percentage inhibition) [1, 10]: 0.0 | Expected Inhibition (Limpel formula) [1, 11]: 13.0 | Observed Inhibition (percentage inhibition) [1, 11]: 13.0 | Expected Inhibition (Limpel formula) [1, 12]: 29.0 | Observed Inhibition (percentage inhibition) [1, 12]: 29.0 | interaction with nystatin (observed vs expected inhibition) ([1]; nystatin 0.3-5 ug/ml, peptide 0.6-5 ug/ml, Fusarium oxysporum, Table XIV): synergism | interaction with miconazole (observed vs expected inhibition) ([1]; peptide 1.3-5.0 ug/ml, miconazole 0.6-20 ug/ml, Fusarium oxysporum, Table XVII): synergism

FRLKFHI [D- amino acid heptapeptide FRLKFHI-NH2]
interaction with miconazole (observed vs expected inhibition) (Aspergillus fumigatus; peptide 1.340 ug/ml, miconazole 0.5-2.0 ug/ml, Table XIX): synergism | interaction with fluconazole (observed vs expected inhibition) (Aspergillus fumigatus; peptide 1.3-20 ug/ml, fluconazole 28.7-229.5 ug/ml, Table XXI): synergism | interaction with miconazole (observed vs expected inhibition) (Aspergillus paraciticus; peptide 3.8-60 ug/ml, miconazole 0.2-1.3 ug/ml, Table XXIII): synergism | interaction with amphotericin B (observed vs expected inhibition) ([1]; peptide 0.9-7.0 ug/ml, amphotericin B 0.9-7.5 ug/ml, Fusarium oxysporum, Table XV): synergism | interaction with fluconazole (observed vs expected inhibition) ([1]; peptide 1.3-20 ug/ml, fluconazole 28.7-229.5 ug/ml, Fusarium oxysporum, Table XXVII): synergism
